The source of these data is PMC5867211 (Archives of toxicology, 2017).

For series [1], the system named is Hep3B cells. In words: Metabolism-induced toxicity on DataChip/MetaChip. The settings on record: for Change of toxicity in All Mix vs. parent compound: All Mix vs. no enzyme, 3D Hep3B on chip; for CC50: Homo sapiens, Hep3B.
Series [2] deals with Hep3B human hepatoma cell line. Briefly: 2D cell viability. The series is classed as cell-based. The settings on record: 72 h, read-out: IC50, 2D cultured Hep3B cells in 96-well plates.
For series [3], the system named is Hep3B cells.
Series [4] concerns humans. To be noted: previously categorized; ref Xu et al. 2008; cited from earlier work.
For series [5] the following is noted: read-out: 1000* Human Cmax; 1000-fold in vivo human Cmax; cited from earlier work.
Series [6] in a line: in vitro. To be noted: human.

Structures are written as SMILES. “Also recorded” adds a separate entry of the source. Read-outs that look alike come from different tables or passages of the source.

For orientation: IC50 means the concentration that gives 50% inhibition. For `CC(=O)Nc1ccc(O)cc1` [Acetaminophen], the “Change of toxicity in All Mix vs. parent compound” value in series [1] is “metabolism-induced toxicity”. The IC50 in series [2] (Homo sapiens, Hep3B) is 300 µM. The “Change of toxicity in P450 Mix vs. parent compound” value in series [3] was “metabolism-induced toxicity”. The DILI category result in series [4] is recorded as “P1”.

Turning to `CCc1oc2ccccc2c1C(=O)c1cc(Br)c(O)c(Br)c1` [Benzbromarone], in series [2] (Homo sapiens, Hep3B), the half-maximal inhibitory concentration (IC50) stood at 58 ± 22 µM. In addition, in series [4], the DILI category result is “P1”.

As for `COc1ccccc1Oc1c(NS(=O)(=O)c2ccc(C(C)(C)C)cc2)nc(-c2ncccn2)nc1OCCO` [Bosentan], the IC50 in series [2] (Homo sapiens, Hep3B) worked out at 55 ± 20 µM. In series [4], the DILI category result is recorded as “P1”.

With `O=C1CC2(CCCC2)CC(=O)N1CCCCN1CCN(c2ncccn2)CC1` [Buspirone], in series [2] (Homo sapiens, Hep3B), the IC50 was 170 ± 74 µM. In addition, the DILI category result in series [4] is given as “N1”.

For orientation: Cmax means the maximum level reached in the sampled fluid or tissue. For `C[C@@](Cc1ccc(O)c(O)c1)(NN)C(=O)O` [Carbidopa], the “Change of toxicity in All Mix vs. parent compound” value in series [1] is “augmented toxicity”. In addition, the IC50 in series [2] (Homo sapiens, Hep3B) stood at 46 ± 28 µM. Besides, the “Change of toxicity in P450 Mix vs. parent compound” value in series [3] is “activated”. The DILI category entry in series [4] is recorded as “N1”. In addition, the Cmax in series [5] is 660 nM.

Consider `CCCNC(=O)NS(=O)(=O)c1ccc(Cl)cc1` [Chlorpropamide], for which the IC50 in series [2] (Homo sapiens, Hep3B) came out at 300 µM. Moreover, the DILI category result in series [4] is reported as “P2”. For the same molecule, in series [5], the Cmax was 123000 nM.

As for `O=C(O)Cc1ccccc1Nc1c(Cl)cccc1Cl` [Diclofenac], the IC50 in series [2] (Homo sapiens, Hep3B) is 120 ± 51 µM. For the same molecule, the DILI category entry in series [4] is recorded as “P2”.

As to `C[C@]12CC[C@@H]3c4ccc(O)cc4CC[C@H]3[C@@H]1CC[C@@H]2O` [Estradiol], the IC50 in series [2] (Homo sapiens, Hep3B) was 53 ± 20 µM. Moreover, the DILI category result in series [4] is recorded as “N3”. In addition, in series [5], the Cmax was 0.1 nM.

In the case of `CC(Cc1ccc(O)cc1)NCC(O)c1cc(O)cc(O)c1` (stereo not shown) [Fenoterol], the IC50 in series [6] was 290 ± 140 µM; in series [2] (Homo sapiens, Hep3B), 300 µM. In addition, the CC50 came to 1200 µM in series [1] (read-out: IC50, 3D cultured Hep3B cells on the Data/MetaChip, All Mix); 1200 µM in series [1] (read-out: IC50, 3D cultured Hep3B cells on the Data/MetaChip, HLM); 1200 µM in series [1] (read-out: IC50, 3D cultured Hep3B cells on the Data/MetaChip, No Enzyme). In series [4], the DILI category entry is “P2”. Moreover, the Cmax in series [5] was 0.6 nM.

In the case of `CNCCC(Oc1ccc(C(F)(F)F)cc1)c1ccccc1` (stereo not shown) [Fluoxetine], the DILI category entry in series [4] is listed as “N3”. In addition, the Cmax in series [5] was 97 nM.

For the molecule `CC(C)C(=O)Nc1ccc([N+](=O)[O-])c(C(F)(F)F)c1` [Flutamide], the “Change of toxicity in All Mix vs. parent compound” value in series [1] is “statistically less toxicity”. The IC50 in series [2] (Homo sapiens, Hep3B) was 45 ± 18 µM. Further, the DILI category entry in series [4] is given as “P2”.

With `CN(C)CCCN1c2ccccc2CCc2ccccc21` [Imipramine], in series [2] (Homo sapiens, Hep3B), the IC50 turned out to be 5 ± 2 µM. In addition, in series [4], the DILI category entry is reported as “P2”.

With `CC(CCc1ccccc1)NCC(O)c1ccc(O)c(C(N)=O)c1` (stereo not shown) [Labetalol], the IC50 in series [2] (Homo sapiens, Hep3B) is 150 ± 34 µM. Moreover, in series [4], the DILI category result is given as “P2”.

Turning to `Cc1cccc(Nc2ccccc2C(=O)O)c1C` [Mefenamic acid], the “Change of toxicity in All Mix vs. parent compound” value in series [1] is recorded as “statistically less toxicity”. In addition, the IC50 in series [2] (Homo sapiens, Hep3B) was 260 ± 74 µM. In addition, the DILI category entry in series [4] is “P2”.

As to `CCCOc1ccc2[nH]c(NC(=O)OC)nc2c1` [Oxybendazole], in series [1], the “Change of toxicity in All Mix vs. parent compound” value is recorded as “augmented toxicity”. Further, the IC50 in series [2] (2D monolayer, no enzyme, MTT) stood at 24 ± 18 µM. Moreover, in series [4], the DILI category result is “O1”. For the same molecule, the Cmax in series [5] was 30 nM.

With `Nc1ccc(/N=N/c2ccccc2)c(N)n1` [Phenazopyridine], the IC50 in series [2] (Homo sapiens, Hep3B) worked out at 55 ± 13 µM. For the same molecule, the DILI category result in series [4] is “P2”. For the same molecule, the Cmax in series [5] is 124 nM.

On to `Cc1ccc(N(CC2=NCCN2)c2cccc(O)c2)cc1` [Phentolamine], for which the IC50 in series [2] (Homo sapiens, Hep3B) amounted to 48 ± 9 µM.

Regarding `CN(C)CCCN1c2ccccc2Sc2ccccc21` [Promazine], the IC50 in series [2] (Homo sapiens, Hep3B) came out at 21 ± 3 µM. In addition, the DILI category result in series [4] is given as “N3”. Moreover, the Cmax in series [5] is 490 nM.

For `Cc1nc2n(c(=O)c1CCN1CCC(c3noc4cc(F)ccc34)CC1)CCCC2` [Risperidone], the DILI category result in series [4] is given as “P2”.

Turning to `CC1=C(CC(=O)O)c2cc(F)ccc2/C1=C\c1ccc([S+](C)[O-])cc1` (stereo not shown) [Sulindac], the “Change of toxicity in All Mix vs. parent compound” value in series [1] is on record as “statistically less toxicity; also recorded: increased IC50”. Besides, the IC50 in series [2] (Homo sapiens, Hep3B) amounted to 300 µM. In series [4], the DILI category entry is on record as “P2”.

In the case of `O=c1n(CCCN2CCN(c3cccc(Cl)c3)CC2)nc2ccccn12` [Trazodone], the DILI category result in series [4] is listed as “P2”.
